Assay [1] deals with Serotonin 5-HT1D (Homo sapiens, UniProt P28221). Description: PDSP binding screen.
Assay [2] addresses Serotonin 5-HT7A (Homo sapiens, UniProt P34969). The assay can be described thus: PDSP binding screen. The settings on record: for inhibition at 10 µM: read-out: Ki (nM) or % inhibition at 10 µM: 5-HT7A.
The target of assay [3] is T1, Adrenergic alpha1B (Homo sapiens, UniProt P35368).
T1 sequence (P35368 1-520): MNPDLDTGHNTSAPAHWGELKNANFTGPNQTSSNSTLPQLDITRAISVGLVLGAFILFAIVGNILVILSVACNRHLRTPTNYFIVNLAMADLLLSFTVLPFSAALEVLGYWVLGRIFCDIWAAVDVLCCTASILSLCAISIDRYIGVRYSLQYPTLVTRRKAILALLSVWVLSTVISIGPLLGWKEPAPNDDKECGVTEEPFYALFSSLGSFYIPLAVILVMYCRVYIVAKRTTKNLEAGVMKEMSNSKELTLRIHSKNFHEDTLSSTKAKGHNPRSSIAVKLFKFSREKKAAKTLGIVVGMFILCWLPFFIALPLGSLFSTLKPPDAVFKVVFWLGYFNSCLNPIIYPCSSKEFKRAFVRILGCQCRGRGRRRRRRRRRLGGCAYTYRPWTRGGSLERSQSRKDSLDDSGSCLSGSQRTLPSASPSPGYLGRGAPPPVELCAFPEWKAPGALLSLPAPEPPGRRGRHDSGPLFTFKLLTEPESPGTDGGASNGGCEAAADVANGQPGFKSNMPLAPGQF
Description: PDSP binding screen. The settings on record: for inhibition at 10 µM: read-out: Ki (nM) or % inhibition at 10 µM: alpha1B.

In assay [4] the target is T2, Adrenergic alpha1D (Homo sapiens, UniProt P25100).
T2 sequence (P25100 1-572): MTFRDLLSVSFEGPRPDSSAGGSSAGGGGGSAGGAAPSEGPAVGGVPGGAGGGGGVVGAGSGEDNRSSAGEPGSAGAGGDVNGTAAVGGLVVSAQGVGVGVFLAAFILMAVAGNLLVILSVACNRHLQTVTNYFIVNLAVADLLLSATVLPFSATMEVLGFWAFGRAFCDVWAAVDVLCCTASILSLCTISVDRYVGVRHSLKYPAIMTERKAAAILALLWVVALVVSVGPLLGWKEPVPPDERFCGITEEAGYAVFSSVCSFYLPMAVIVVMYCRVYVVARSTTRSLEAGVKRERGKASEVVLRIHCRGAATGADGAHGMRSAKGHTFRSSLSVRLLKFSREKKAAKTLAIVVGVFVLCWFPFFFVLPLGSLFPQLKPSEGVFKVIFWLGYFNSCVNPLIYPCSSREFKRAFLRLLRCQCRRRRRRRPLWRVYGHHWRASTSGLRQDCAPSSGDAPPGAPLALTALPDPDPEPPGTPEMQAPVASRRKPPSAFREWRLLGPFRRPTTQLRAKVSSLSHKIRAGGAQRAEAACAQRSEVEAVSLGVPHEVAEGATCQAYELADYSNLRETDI
The assay can be described thus: PDSP binding screen. The settings on record: for inhibition at 10 µM: read-out: Ki (nM) or % inhibition at 10 µM: alpha1D.

Assay [5] concerns the target Dopamine D1 (Homo sapiens, UniProt P21728). Description: PDSP binding screen. The settings on record: for inhibition at 10 µM: read-out: Ki (nM) or % inhibition at 10 µM: D1.
The target of assay [6] is Dopamine D5 (Homo sapiens, UniProt P21918). Description: PDSP binding screen. The settings on record: for inhibition at 10 µM: read-out: Ki (nM) or % inhibition at 10 µM: D5.
In assay [7] the target is Histamine H2 (Homo sapiens, UniProt P25021). The assay can be described thus: PDSP binding screen.
Assay [8] concerns the target Histamine H3 (Homo sapiens, UniProt Q9Y5N1). The assay can be described thus: PDSP binding screen. Particulars: for inhibition at 10 µM: read-out: Ki (nM) or % inhibition at 10 µM: H3.
For assay [9], the target named is Histamine H4 (Homo sapiens, UniProt Q9H3N8). Description: PDSP binding screen. Particulars: read-out: Ki (nM) or % inhibition at 10 µM: H4.
For assay [10], the target named is Muscarinic M3 (Homo sapiens, UniProt P20309). Description: PDSP binding screen. Particulars: read-out: Ki (nM) or % inhibition at 10 µM: M3.
Assay [11] addresses T3, Muscarinic M4 (Homo sapiens, UniProt P08173).
T3 sequence (P08173 1-479): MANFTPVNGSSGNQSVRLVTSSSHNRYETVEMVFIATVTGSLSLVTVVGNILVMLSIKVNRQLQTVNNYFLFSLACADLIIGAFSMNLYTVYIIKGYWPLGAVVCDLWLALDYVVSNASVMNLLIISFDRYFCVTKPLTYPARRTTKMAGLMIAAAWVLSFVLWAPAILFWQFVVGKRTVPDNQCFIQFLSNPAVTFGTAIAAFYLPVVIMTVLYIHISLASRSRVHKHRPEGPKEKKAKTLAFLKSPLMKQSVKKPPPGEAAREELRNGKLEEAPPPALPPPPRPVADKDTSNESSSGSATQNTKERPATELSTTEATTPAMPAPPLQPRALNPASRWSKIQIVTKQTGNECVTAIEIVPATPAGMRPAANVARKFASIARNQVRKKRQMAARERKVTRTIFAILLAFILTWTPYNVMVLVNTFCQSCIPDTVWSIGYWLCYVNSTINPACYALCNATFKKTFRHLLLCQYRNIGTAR
Description: PDSP binding screen. The settings on record: for inhibition at 10 µM: read-out: Ki (nM) or % inhibition at 10 µM: M4.

The target of assay [12] is Norepinephrine transporter (NET) (Homo sapiens, UniProt P23975). Description: PDSP binding screen.
The target in assay [13] is human D3 receptors (Homo sapiens, UniProt P35462). Description: β-arrestin recruitment assay (antagonist mode, competition with dopamine). The assay is classed as cell-based. On the set-up: expressed in transfected cells. The settings on record: for Emax: percentage of the maximum inhibition of dopamine at EC80 concentration, read-out: Imax (% Control); for IC50: potency for D3 receptors, CHO-K1 cells, vs 30 nM (EC80) dopamine, mean ± SD, three experiments, read-out: IC50. As to the method:
Two different assays were used to evaluate the properties of the analogs described above. The receptor binding affinity was measured by radioligand binding assays using [^125I]IABN with D2 or D3 receptors highly expressed HEK293 cells. The functional activity of the analogs was determined using a β-arrestin recruitment assay. The assay was initially conducted in agonist binding mode to confirm that they function as antagonists at the D3 receptor. Once this efficacy was confirmed, the assay was conducted in antagonist mode to determine the ability of the antagonist to compete with dopamine at the D3 receptor. The results of the antagonist mode assay are reported as IC50 values.
CHO-K1 cells which were overexpressed human D3 receptors were cultured in assaycomplete^TM cell culture kit 107. Cells were seeded at a density of 25,000 cells per well of 96-well plate, and incubated at 5% CO2, 37 °C. Two days later, test compounds were dissolved in DMSO, and diluted with 11-point series in phosphate-buffered saline (PBS). Prepared compounds were added to the cells, and it was incubated for 30 min at 5% CO2, 37 °C. Then, cells were treated with 30 nM (EC80) of dopamine, and the plate was incubated another 90 min. PathHunter^TM detection reagent was added to each well, and then plate was incubated for 80 min at RT in the dark. The chemiluminescent signal was measured by PerkinElmer Enspire plate reader (PerkinElmer, Boston, MA). Data were analyzed by Prism followed by non-linear regression.

Chain of Serotonin 5-HT1D (P28221 whole entry): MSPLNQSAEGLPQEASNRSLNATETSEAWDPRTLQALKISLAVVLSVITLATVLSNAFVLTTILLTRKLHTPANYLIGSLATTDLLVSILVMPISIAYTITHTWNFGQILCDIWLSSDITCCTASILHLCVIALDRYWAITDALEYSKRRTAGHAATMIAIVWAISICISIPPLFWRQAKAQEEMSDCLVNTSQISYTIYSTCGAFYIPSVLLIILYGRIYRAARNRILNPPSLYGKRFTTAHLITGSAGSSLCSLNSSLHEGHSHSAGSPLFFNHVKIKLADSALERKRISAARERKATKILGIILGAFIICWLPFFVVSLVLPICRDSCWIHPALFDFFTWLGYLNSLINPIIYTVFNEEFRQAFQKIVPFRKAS
Chain of Norepinephrine transporter (NET) (P23975 whole entry): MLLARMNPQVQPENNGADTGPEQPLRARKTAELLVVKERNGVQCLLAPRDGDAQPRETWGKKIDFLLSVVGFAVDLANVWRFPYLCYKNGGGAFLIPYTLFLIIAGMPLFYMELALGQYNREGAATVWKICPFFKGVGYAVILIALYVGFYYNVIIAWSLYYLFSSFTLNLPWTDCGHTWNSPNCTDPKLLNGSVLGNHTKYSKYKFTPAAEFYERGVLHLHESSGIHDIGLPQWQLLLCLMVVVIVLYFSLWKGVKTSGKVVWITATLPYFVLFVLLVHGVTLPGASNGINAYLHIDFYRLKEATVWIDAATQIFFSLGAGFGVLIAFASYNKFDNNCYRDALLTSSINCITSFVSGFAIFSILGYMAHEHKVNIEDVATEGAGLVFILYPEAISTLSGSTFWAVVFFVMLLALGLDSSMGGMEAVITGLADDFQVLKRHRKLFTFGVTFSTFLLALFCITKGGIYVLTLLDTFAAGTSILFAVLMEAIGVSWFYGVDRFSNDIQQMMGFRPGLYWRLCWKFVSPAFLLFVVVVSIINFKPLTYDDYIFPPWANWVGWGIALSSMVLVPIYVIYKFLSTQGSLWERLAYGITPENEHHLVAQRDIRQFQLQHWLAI
Chain of Dopamine D1 (P21728 whole entry): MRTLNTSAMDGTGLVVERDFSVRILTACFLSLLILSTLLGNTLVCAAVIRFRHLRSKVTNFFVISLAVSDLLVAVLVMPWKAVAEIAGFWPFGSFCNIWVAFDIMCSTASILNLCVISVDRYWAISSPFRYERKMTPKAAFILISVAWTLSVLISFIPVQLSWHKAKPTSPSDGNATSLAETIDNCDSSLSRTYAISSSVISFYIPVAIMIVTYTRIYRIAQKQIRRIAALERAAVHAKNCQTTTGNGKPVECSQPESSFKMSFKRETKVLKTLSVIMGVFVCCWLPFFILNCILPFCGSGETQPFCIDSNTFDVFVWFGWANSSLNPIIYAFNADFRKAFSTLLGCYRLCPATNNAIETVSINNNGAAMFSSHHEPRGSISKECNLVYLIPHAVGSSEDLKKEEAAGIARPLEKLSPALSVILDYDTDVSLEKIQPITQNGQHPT
Chain of Histamine H2 (P25021 whole entry): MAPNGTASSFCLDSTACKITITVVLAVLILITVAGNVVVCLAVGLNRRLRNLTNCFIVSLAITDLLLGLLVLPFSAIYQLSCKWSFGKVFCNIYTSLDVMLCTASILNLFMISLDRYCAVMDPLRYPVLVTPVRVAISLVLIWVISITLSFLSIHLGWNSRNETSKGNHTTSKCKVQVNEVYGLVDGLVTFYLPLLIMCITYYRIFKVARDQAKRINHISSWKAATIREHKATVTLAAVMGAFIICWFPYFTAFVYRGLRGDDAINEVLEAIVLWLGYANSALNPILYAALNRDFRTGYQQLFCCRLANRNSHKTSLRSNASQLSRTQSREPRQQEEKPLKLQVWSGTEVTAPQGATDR
Chain of Histamine H3 (Q9Y5N1 whole entry): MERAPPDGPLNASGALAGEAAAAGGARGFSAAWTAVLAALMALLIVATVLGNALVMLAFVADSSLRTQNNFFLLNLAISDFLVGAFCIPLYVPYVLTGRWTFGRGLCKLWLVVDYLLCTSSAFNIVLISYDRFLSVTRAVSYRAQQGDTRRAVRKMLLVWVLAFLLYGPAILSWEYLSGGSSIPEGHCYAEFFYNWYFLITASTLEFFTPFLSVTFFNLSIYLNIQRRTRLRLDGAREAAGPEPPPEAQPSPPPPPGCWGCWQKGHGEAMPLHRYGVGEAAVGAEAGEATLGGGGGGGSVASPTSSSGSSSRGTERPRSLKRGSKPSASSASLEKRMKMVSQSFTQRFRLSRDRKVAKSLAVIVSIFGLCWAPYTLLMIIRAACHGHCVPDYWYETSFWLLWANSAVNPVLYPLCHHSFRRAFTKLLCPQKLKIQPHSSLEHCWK
Chain of Histamine H4 (Q9H3N8 whole entry): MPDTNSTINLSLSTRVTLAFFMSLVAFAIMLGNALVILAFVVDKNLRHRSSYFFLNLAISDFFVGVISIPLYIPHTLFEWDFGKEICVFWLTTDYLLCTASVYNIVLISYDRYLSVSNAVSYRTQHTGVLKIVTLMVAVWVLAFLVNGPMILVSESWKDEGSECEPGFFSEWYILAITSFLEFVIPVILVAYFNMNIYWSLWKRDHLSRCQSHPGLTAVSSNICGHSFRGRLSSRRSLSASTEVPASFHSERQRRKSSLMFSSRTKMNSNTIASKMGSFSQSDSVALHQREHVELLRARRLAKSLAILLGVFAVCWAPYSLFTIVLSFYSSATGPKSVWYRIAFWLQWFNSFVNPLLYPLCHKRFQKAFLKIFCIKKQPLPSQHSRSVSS
Chain of Serotonin 5-HT7A (P34969 1-445 isoform P34969-2): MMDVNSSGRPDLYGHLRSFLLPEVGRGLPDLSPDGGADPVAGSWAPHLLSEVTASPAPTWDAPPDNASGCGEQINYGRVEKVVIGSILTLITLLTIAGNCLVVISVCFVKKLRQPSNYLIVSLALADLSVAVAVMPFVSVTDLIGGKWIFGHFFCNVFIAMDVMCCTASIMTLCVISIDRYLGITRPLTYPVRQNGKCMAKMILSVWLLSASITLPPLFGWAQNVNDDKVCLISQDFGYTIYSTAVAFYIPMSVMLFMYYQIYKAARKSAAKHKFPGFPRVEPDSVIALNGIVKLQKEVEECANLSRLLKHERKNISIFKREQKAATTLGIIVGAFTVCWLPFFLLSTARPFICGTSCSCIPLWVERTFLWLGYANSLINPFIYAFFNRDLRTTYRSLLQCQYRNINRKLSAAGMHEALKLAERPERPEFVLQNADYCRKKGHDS
Chain of Muscarinic M3 (P20309 whole entry): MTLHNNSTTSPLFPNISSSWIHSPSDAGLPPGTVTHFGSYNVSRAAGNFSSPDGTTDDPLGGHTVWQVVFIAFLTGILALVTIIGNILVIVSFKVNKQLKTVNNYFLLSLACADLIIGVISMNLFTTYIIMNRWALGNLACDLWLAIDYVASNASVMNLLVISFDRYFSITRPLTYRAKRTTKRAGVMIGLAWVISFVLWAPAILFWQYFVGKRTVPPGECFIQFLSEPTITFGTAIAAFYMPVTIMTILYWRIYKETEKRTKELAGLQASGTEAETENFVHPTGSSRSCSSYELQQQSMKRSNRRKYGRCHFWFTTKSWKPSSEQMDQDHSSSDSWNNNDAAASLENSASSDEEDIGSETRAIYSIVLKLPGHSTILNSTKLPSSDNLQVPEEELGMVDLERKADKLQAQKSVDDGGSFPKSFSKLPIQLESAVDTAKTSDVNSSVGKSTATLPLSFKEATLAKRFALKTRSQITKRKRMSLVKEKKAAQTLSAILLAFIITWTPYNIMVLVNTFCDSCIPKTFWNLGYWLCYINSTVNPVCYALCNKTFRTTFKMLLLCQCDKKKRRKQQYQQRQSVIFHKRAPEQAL
Chain of Dopamine D5 (P21918 whole entry): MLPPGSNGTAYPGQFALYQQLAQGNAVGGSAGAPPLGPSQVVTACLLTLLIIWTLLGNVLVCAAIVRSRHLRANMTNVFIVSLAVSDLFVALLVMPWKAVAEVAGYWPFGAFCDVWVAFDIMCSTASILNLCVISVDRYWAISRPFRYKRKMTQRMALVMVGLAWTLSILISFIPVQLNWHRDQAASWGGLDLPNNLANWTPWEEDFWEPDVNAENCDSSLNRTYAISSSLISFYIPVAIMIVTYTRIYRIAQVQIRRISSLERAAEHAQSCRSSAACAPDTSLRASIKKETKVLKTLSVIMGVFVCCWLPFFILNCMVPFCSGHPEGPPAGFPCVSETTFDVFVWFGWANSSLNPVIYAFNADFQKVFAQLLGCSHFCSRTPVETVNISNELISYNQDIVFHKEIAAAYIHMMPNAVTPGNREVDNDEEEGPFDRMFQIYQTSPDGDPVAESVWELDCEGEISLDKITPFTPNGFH
Chain of human D3 receptors (P35462 whole entry): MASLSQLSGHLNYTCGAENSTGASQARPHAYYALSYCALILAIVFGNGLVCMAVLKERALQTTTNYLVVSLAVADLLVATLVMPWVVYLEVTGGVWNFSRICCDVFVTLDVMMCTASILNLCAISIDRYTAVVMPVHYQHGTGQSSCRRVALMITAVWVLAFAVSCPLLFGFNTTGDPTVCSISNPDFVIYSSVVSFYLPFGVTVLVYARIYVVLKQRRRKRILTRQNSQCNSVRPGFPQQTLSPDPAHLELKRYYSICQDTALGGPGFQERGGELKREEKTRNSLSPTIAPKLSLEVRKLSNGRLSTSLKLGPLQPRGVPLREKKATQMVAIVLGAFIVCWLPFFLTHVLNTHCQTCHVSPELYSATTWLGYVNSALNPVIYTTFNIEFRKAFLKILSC

For the molecule `CCN(CCCNC(=O)c1ccc(-c2ccsc2)cc1)CCNC(=O)c1cc(Br)cc(OC)c1OC` [21g, 5-Bromo-N-(2-(ethyl(3-(4-(thiophen-3-yl)benzamido)propyl)amino)ethyl)-2,3-dimethoxybenzamide], the Ki in [1] worked out at 1.82 µM; in assay [2] it was 2.25 µM; in assay [3], 1.63 µM; in assay [4], 1.41 µM; in [5], 2.01 µM; in assay [6] it was 8.69 µM. Further, the Ki in assay [7] stood at 2.48 µM; in [8], 4.81 µM; in assay [11] it was 1.09 µM; in [12] it was 1.94 µM. For the same molecule, the inhibition at 10 µM in [9] and in assay [10] was less than 50% throughout. Besides, the Emax in assay [13] worked out at 50.1 ± 20.9%. Also, in assay [13], the IC50 worked out at 0.0368 ± 0.0357 µM.
`CCN(CCCNC(=O)c1ccsc1)CCNC(=O)c1cc(Br)cc(OC)c1OC` [21i, N-(3-((2-(5-Bromo-2,3-dimethoxybenzamido)ethyl)(ethyl)amino)propyl)thiophen-e-3-carboxamide]: the values for the inhibition constant Ki in [1] and in assay [12] were 3.14 µM and 3.2 µM, respectively. The inhibition at 10 µM in [2], in [3], in [4], in [5], in assay [6] and in assay [7] (read-out: Ki (nM) or % inhibition at 10 µM: H2) was less than 50% throughout. The inhibition at 10 µM in assay [8], in assay [9], in assay [10] and in [11] was less than 50% in each case. Moreover, the Emax in assay [13] was 99.6 ± 20.7%. Also, the half-inhibitory concentration (IC50) in assay [13] came out at 0.0027 ± 0.0002 µM.
Turning to `CCN(CCCNC(=O)c1cc2ccccc2n1C)CCNC(=O)c1cc(Br)cc(OC)c1OC` [21j, N-(3-((2-(5-Bromo-2,3-dimethoxybenzamido)ethyl)(ethyl)amino)propyl)-1-methyl-1H-indole-2-carboxamide], the results for the inhibitory constant (Ki) in assay [1], in assay [7] and in assay [12] were 1.93 µM, 3.68 µM and 1.1 µM, respectively. Further, the inhibition at 10 µM in [2], in assay [3], in assay [4], in assay [5], in assay [6] and in assay [8] was less than 50% each time. Moreover, the inhibition at 10 µM in [9], in assay [10] and in [11] was less than 50% each time. Moreover, the Emax in [13] was 81.5 ± 10.1%. Also, in assay [13], the 50% inhibitory concentration (IC50) amounted to 0.0048 ± 0.0008 µM.

(Values after PMC9820167, “Design and Synthesis of Conformationally Flexible Scaffold as Bitopic Ligands for Potent D3-Selective Antagonists” (International Journal of Molecular Sciences, 2022).)
